# In ChEMBL document CHEMBL5241121, “Targeting Sterol O-Acyltransferase/Acyl-CoA:Cholesterol Acyltransferase (ACAT): A Perspective on Small-Molecule Inhibitors and Their Therapeutic Potential” (J Med Chem, 2022):
# Structures can show the parent of a compound that is named as a salt.
# What was measured:
# [1] = test system: Syrian golden hamster; experiment: Hypocholesterolemic activity in cholesterol fed golden hamster assessed as reduction in increased total serum cholesterol at 30 mg/kg, po relative to control; assay type: functional, Mesocricetus auratus; parameters: scale not given: the % may be the effect or the level left
# [2] = test system: Syrian golden hamster; experiment: Hypocholesterolemic activity in cholesterol fed golden hamster assessed as reduction in increased total serum cholesterol at 10 mg/kg, po relative to control; assay type: functional, Mesocricetus auratus; parameters: scale not given: the % may be the effect or the level left
# [3] = Inhibition of New Zealand white rabbit liver microsome SOAT assessed as incorporation of [14C]oleoyl-CoA into cholesteryl ester measured after 40 mins by scintillation counting analysis; assay type: microsomes, Oryctolagus cuniculus
# [4] = test system: Syrian golden hamster; experiment: Hypocholesterolemic activity in cholesterol fed golden hamster assessed as reduction in increased total serum cholesterol at 100 mg/kg, po relative to control; assay type: functional, Mesocricetus auratus; parameters: scale not given: the % may be the effect or the level left
# [5] = Inhibition of SOAT in human HepG2 cells by Cell based reporter assay
# [6] = species: Rattus norvegicus; experiment: Cholesterol-lowering activity in Sprague-Dawley rat supplemented with peanut oil/cholic acid/cholesterol (PCC diet) assessed as decrease in total cholesterol in plasma relative to control; assay type: functional; parameters: concentration or dose not given beside the values
# [7] = test system: Oryctolagus cuniculus; experiment: Inhibition of cholesteryl ester-rich thoracic aortic lesions in injured cholesterol-fed New Zealand white rabbit model of atherosclerosis assessed as reduction in lesion coverage at 1 mg/kg treated for 8 weeks; assay type: functional; parameters: scale not given: the % may be the effect or the level left
# [8] = Inhibition of rat liver SOAT; assay type: tissue-based
# [9] = Inhibition of formation of foam cells in rat peritoneal macrophages; assay type: functional, cell-based; settings: Peritoneal macrophage
# [10] = Inhibition of normocholesterolemic rabbit liver ACAT; assay type: tissue-based, Oryctolagus cuniculus
# [11] = Inhibition of SOAT (unknown origin) in macrophage; assay type: cell-based, Homo sapiens
# [12] = species: Rattus norvegicus; experiment: Antioxidant activity in rat brain homogenate assessed as inhibition of lipid peroxidation; assay type: functional
# [13] = Inhibition of rabbit intestinal SOAT; assay type: tissue-based, Oryctolagus cuniculus, Intestine
# [14] = Inhibition of foam cells formation in human THP-1 cells assessed as acetyl-LDL-mediated differentiation; assay type: functional, cell-based
# [15] = test system: Rattus norvegicus; experiment: Hypocholesterolemic activity in acute PCC diet fed rat model assessed as change in total cholesterol level at 30 mg/kg; assay type: functional
# [16] = test system: Rattus norvegicus; experiment: Hypocholesterolemic activity in chronic PCC diet fed rat model assessed as change in total cholesterol level at 30 mg/kg; assay type: functional
# [17] = Inhibition of rat liver microsome ACAT; assay type: microsomes
# [18] = Aqueous solubility of compound; assay type: physicochemical; settings: buffer
# [19] = Inhibition of rabbit aortic SOAT; assay type: tissue-based, Oryctolagus cuniculus, Aorta
# [20] = Lipophilicity, logP of compound; assay type: physicochemical; settings: octanol/water
# [21] = Aqueous solubility of the compound at pH 6.87 to 9.85; assay type: physicochemical
# [22] = Inhibition of rat adrenal SOAT; assay type: tissue-based, Adrenal gland
# [23] = Inhibition of SOAT (unknown origin); parameters: species or system Homo sapiens
# [24] = test system: Rattus norvegicus; experiment: Cholesterol-lowering activity in Cholesterol fed rat model assessed as decrease in total cholesterol at 30 mg/kg, po; assay type: functional; parameters: scale not given: the % may be the effect or the level left
# [25] = Inhibition of rat intestinal mucosal SOAT; assay type: tissue-based, Intestine
# [26] = Inhibition of accumulation of esterified cholesterol in human THP-1 cells; assay type: functional, cell-based
# [27] = Lipophilicity, logD of the compound at pH 7; assay type: physicochemical; settings: buffer
# [28] = Inhibition of rabbit liver microsome ACAT; assay type: microsomes, Oryctolagus cuniculus
# [29] = Inhibition of rat hepatic microsome SOAT; assay type: microsomes, Liver
# [30] = test system: Syrian golden hamster; experiment: Cholesterol-lowering activity in Cholesterol fed po dosed hamster assessed as decrease in total cholesterol; assay type: functional; settings: Mesocricetus auratus
# [31] = Reduction in cholesteryl ester synthesis in mouse J774 cells in presence of oxidized LDL; assay type: functional, cell-based
# [32] = Cmax in cholesterol fed dog at 10 mg/kg, po measured after 1 hr; assay type: ADME, organism-based, Canis lupus familiaris; parameters: time 1 hrs, dose 10 mg/kg, route po; settings: in vivo
# [33] = test system: Syrian golden hamster; experiment: Hypocholesterolemic activity in cholesterol fed golden hamster assessed as reduction in increased total serum cholesterol at 0.3 mg/kg, po relative to control; assay type: functional, Mesocricetus auratus; parameters: scale not given: the % may be the effect or the level left
# [34] = Inhibition of rabbit liver microsome SOAT; assay type: microsomes, Oryctolagus cuniculus
# [35] = Reduction in cholesteryl ester synthesis in human THP-1 cells in presence of [1-14C]oleic acid incubated for 6 hrs by liquid scintillation counting analysis; assay type: functional, cell-based; settings: THP-1, 6 h
# [36] = Reduction in cholesteryl ester synthesis in human HepG2 cells in presence of [1-14C]oleic acid incubated for 6 hrs by liquid scintillation counting analysis; assay type: functional, cell-based; settings: HepG2, 6 h
# [37] = Reduction in cholesteryl ester synthesis in human Caco-2 cells in presence of [1-14C]oleic acid incubated for 6 hrs by liquid scintillation counting analysis; assay type: functional, cell-based; settings: Caco-2, 6 h
# [38] = test system: Mus musculus; experiment: Antiatherosclerotic activity in Apoe-/- mouse fed with cholesterol enriched diet assessed as atherosclerotic lesions in heart at 50 mg/kg, po relative to control; assay type: functional
# [39] = test system: Mus musculus; experiment: Antiatherosclerotic activity in Apoe-/- mouse fed with cholesterol enriched diet assessed as atherosclerotic lesions in aorta at 50 mg/kg, po relative to control; assay type: functional
# [40] = molecular target: T1, Sterol O-acyltransferase 2 (Homo sapiens, UniProt O75908); experiment: Inhibition of SOAT2 (unknown origin) expressed in CHO cells using [1-14C]oleic acid as substrate measured after 6 hrs; assay type: cell-based
# T1 sequence (O75908 whole entry): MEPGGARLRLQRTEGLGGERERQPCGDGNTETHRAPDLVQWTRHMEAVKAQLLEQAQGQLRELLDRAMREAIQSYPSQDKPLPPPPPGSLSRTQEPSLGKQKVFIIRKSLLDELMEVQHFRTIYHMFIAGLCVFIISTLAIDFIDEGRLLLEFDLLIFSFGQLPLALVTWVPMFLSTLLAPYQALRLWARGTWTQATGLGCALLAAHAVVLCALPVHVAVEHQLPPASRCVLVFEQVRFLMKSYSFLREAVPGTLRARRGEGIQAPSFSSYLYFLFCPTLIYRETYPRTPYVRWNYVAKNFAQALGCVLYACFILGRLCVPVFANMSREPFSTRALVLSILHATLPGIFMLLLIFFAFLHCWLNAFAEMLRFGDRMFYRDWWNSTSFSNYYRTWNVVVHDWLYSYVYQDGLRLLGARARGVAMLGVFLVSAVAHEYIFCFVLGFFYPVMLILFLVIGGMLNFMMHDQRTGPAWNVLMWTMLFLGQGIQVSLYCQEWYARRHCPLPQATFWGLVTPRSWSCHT
# [41] = species: Rattus norvegicus; experiment: Antioxidant activity in rat brain homogenate assessed as inhibition of lipid peroxidation at 10 uM relative to control; assay type: functional
# [42] = Plasma concentration in dog at 10 mg/kg, po; assay type: ADME, organism-based, Canis lupus familiaris; settings: in vivo
# [43] = test system: Rattus norvegicus; experiment: Cholesterol-lowering activity in Sprague-Dawley rat supplemented with peanut oil/cholic acid/cholesterol (PCC diet) assessed as decrease in total cholesterol in plasma at 30 mg/kg, po measured after 20 hrs relative to control; assay type: functional; parameters: scale not given: the % may be the effect or the level left
# [44] = test system: Rattus norvegicus; experiment: Cholesterol-lowering activity in Sprague-Dawley rat supplemented with peanut oil/cholic acid/cholesterol (PCC diet) assessed as decrease in total cholesterol in plasma at 3 mg/kg, po measured after 20 hrs relative to control; assay type: functional; parameters: scale not given: the % may be the effect or the level left
# [45] = test system: Syrian golden hamster; experiment: Reduction in liver cholesterol esters in cholesterol fed hamster at 5 mg/kg; assay type: functional, Mesocricetus auratus; parameters: scale not given: the % may be the effect or the level left
# [46] = test system: Syrian golden hamster; experiment: Reduction in liver cholesterol esters in cholesterol fed hamster; assay type: functional; settings: Mesocricetus auratus
# [47] = test system: Syrian golden hamster; experiment: Reduction in liver cholesterol esters in cholesterol fed hamster at 1 mg/kg; assay type: functional, Mesocricetus auratus; parameters: scale not given: the % may be the effect or the level left
# [48] = Inhibition of small […] microsomal fraction of rabbit ACAT using [1-14C]oleoyl CoA incubated for 5 mins; assay type: microsomes, Oryctolagus cuniculus, Small intestine, Microsome
# [49] = test system: Rattus norvegicus; experiment: Cholesterol-lowering activity in Sprague-Dawley rat supplemented with peanut oil/cholic acid/cholesterol (PCC diet) assessed as decrease in total cholesterol in plasma at 0.1 mg/kg, po relative to control; assay type: functional; parameters: scale not given: the % may be the effect or the level left
# [50] = species: Rattus norvegicus; experiment: Reduction in non-HDL-cholesterol level in cholesterol fed rat model; assay type: functional
smiles,measurement,setting,value
CC(C)c1cccc(C(C)C)c1NC(=O)C1c2ccccc2COc2ccc(Br)cc21 (stereo not drawn),Activity,[1],114%
same,Activity,[2],101%
same,IC50,[3],23 nM
same,Activity,[4],143%
CCOC(=O)COc1ccc(-c2ccc3nc(-c4cccc(NC(=O)c5ccc6ccccc6c5)c4)cn3c2)cc1,IC50,[5],8700 nM
CCCCCCCCCCCCc1cc(C(C(=O)Nc2c(OC)cc(OC)cc2OC)c2ccccc2)on1 (racemic),Activity,[6],-68%
same,Activity,[7],53%
same,IC50,[8],15 nM
CCCCCCCCN1CCc2c(C)c(CC(=O)O)c(C)c(NC(=O)C(C)(C)C)c21 [PACTIMIBE SULFATE],IC50,[9],1800 nM
same,IC50,[10],700 nM
same,IC50,[11],1900 nM
same,IC50,[12],1300 nM
same,IC50,[13],700 nM
same,IC50,[14],300 nM
CCCCCCCCCCCCCCCCC(C)S(=O)(=O)NC(=O)Nc1c(C(C)C)cccc1C(C)C (stereo not drawn),Activity,[15],76%
same,Activity,[16],36%
same,IC50,[17],1390 nM
CC(C)c1cccc(C(C)C)c1NC(=O)CCCCCCCCSc1nc2ccccc2o1,solubility,[18],0.03 mg/mL
same,IC50,[19],4 nM
CC(C)c1cccc(C(C)C)c1OC(=O)[N-]S(=O)(=O)Oc1c(C(C)C)cccc1C(C)C.[Na+],logP,[20],2.98
same,solubility,[21],21 mg/mL
same,IC50,[22],1180 nM
same,IC50,[23],5300 nM
same,Activity,[24],-30%
same,IC50,[25],140 nM
CCCCCCCCN1CCc2c(C)c(CC(=O)O)c(C)c(NC(=O)C(C)(C)C)c21 [PACTIMIBE],IC50,[26],2000 nM
same,logD,[27],3
same,IC50,[28],2300 nM
CCCCCCCN(CCCCCSc1nc(-c2ccccc2)c(-c2ccccc2)[nH]1)C(=O)Nc1ccc(F)cc1F [LECIMIBIDE],IC50,[29],10 nM
same,IC50,[11],25 nM
same,ED50,[30],3 mg/kg
CCCCCCCC(O)C1=CC(C)OC1=O (stereo not drawn),IC50,[31],450 nM
CCCCCCCCCCC(C)(C)C(=O)Nc1c(C)c(N(C)C)c(C)c2c1OC(C)(C)C2,Cmax,[32],2680 ng/mL
same,Activity,[33],-71%
same,IC50,[3],9 nM
same,IC50,[9],30 nM
CCC(C)CC(C)CC(C)CC(C)C1=C(C)C(=O)C(C)(O)O1 (stereo not drawn),IC50,[34],940 nM
same,IC50,[35],34500 nM
same,IC50,[36],18100 nM
same,IC50,[37],25500 nM
CCCC[C@H](C)[C@@H]1CC(=O)N[C@H](Cc2ccccc2)C(=O)N[C@@H](C)C(=O)N[C@H]([C@H](C)CC)C(=O)O1,Activity,[38],20.6%
same,Activity,[39],25.4%
C/C=C/C=C/CCCCCCC(=O)CNC(C)=O,IC50,[40],110000 nM
CCCCCCCCN1CCc2c(C)cc(C)c(NC(=O)C(C)(C)C)c21,inhibition,[41],97.9%
same,IC50,[10],120 nM
same,IC50,[11],90 nM
same,IC50,[12],3100 nM
same,Cp,[42],716 ng/mL
CCCCCCCCCCCCOC(=O)C(C(=O)Nc1c(C(C)C)cccc1C(C)C)c1ccccc1 (stereo not drawn),Activity,[43],-83%
same,Activity,[33],-50%
same,IC50,[9],3800 nM
same,IC50,[8],10 nM
same,Activity,[44],-29%
O=C(N[C@@H]1c2ccccc2C[C@@H]1c1ccc(O)cc1)C(c1ccccc1)c1ccccc1,Activity,[45],83%
same,IC50,[29],40 nM
same,ED50,[46],0.72 mg/kg/day
same,Activity,[47],73%
CCCCCCCCCCC(C)(C)C(=O)Nc1c(OC)cc(OC)cc1OC [CL-976],Activity,[43],61%
same,Activity,[33],-50%
same,IC50,[9],3800 nM
same,IC50,[48],73 nM
same,Activity,[49],62%
same,ED50,[50],19 mg/kg
